From patent US20220089592A1, “IMIDAZO[1,2-A]PYRIDINYL DERIVATIVES AS IRAK4 INHIBITORS” (priority 2019, published 2022)

biological target: T1, IRAK4 (Homo sapiens, UniProt Q9NWZ3); test: 2-hour 1 mM ATP IRAK4 Biochemical assay (as above, but with 100 pM IRAK4 and 1 mM ATP); settings: IRAK4 MSD BIOCHEMICAL (1 mM ATP) IC50 (μM), 100 pM IRAK4, 2 hours
T1 sequence (Q9NWZ3 1-460): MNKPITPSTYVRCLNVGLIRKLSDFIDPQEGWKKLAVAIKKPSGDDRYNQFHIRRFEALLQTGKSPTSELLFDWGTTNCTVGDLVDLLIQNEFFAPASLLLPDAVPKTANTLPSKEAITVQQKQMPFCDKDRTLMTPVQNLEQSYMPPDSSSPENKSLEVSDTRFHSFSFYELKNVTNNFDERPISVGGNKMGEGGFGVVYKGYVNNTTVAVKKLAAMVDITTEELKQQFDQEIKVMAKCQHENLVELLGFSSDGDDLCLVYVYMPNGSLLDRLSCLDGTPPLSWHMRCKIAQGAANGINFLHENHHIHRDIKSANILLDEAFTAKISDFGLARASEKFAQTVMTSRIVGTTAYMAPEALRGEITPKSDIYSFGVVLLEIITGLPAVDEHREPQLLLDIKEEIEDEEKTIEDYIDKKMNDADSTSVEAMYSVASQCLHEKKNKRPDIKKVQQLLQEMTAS
Description: The 2-hour 10 μM ATP Biochemical Assay employs a MesoScale Detection (MSD) format.
The activity is quenched with 11 μl of 70 mM EDTA, pH 8.
To detect the phosphorylated biotinylated peptide substrate, 30 μl of the quenched reaction mixture is added to equivalent wells of a 384 well streptavidin coated MesoScale plate (Meso Scale Discovery #L21SA-1). After a 1 hour incubation of the plate for 1 hour at room temperature with gentle mixing, the plate wells are washed 3 times with 50 mM Tris, pH 7.5, 150 mM NaCl, 0.02% Tween-20.
A 25 μl volume of 1:500 anti-P-Threonine Rabbit polyclonal Antibody plus 1:500 Goat-anti-Rabbit Sulfo Tag Antibody (Meso Scale Discovery R32AB-1) in 50 mM Tris, pH 7.5, 150 mM NaCl, 0.02% Tween-20 plus 2% BSA is then added to each well. After a 1-hour incubation of the plate for 1 hour at room temperature with gentle mixing, the plate wells are washed, 3 times with 50 mM Tris, pH 7.5, 150 mM NaCl, 0.02% Tween-20. A 40 μl volume of 2×MSD Read Buffer (Meso Scale Discovery R92TC-1) is added to each well, and the plate is read immediately in an MSD Plate Reader (Meso Scale Discovery).
The 2-hour 1 mM ATP IRAK4 Biochemical assay was performed as described above, but with 100 pM IRAK4 and 1 mM ATP.

First: O=C(Nc1cn2cc(C3CCOCC3)nc2cc1OC1CCOC1)c1cccc(C(F)F)n1 (stereo not drawn) [Example 183, 6-(difluoromethyl)-N-(2-(tetrahydro-2H-pyran-4-yl)-7-((tetrahydrofuran-3-yl)oxy)imidazo[1,2-a]pyridin-6-yl)picolinamide]
Second: O=C(Nc1cn2cc(C3CCOCC3)nc2cc1OCCC1CCOC1)c1cccc(C(F)F)n1 (stereo not drawn) [Example 195, 6-(difluoromethyl)-N-(2-(tetrahydro-2H-pyran-4-yl)-7-(2-(tetrahydrofuran-3-yl)ethoxy)imidazo[1,2-a]pyridin-6-yl)picolinamide]
The IC50 of the first is 2-fold lower: 0.001 µM for the first, 0.002 µM for the second.

C[C@@H]1C[C@H](Oc2cc3nc(C4CCOCC4)cn3cc2NC(=O)c2cccc(C(F)F)n2)C[C@H](C)O1 [Example 187, 6-(difluoromethyl)-N-(7-(((2R*,4R*,6S*)-2,6-dimethyltetrahydro-2H-pyran-4-yl)oxy)-2-(tetrahydro-2H-pyran-4-yl)imidazo[1,2-a]pyridin-6-yl)picolinamide] and CCO[C@H]1C[C@H](Oc2cc3nc(C4CCOCC4)cn3cc2NC(=O)c2cccc(C(F)F)n2)C1 [Example 190, 6-(difluoromethyl)-N-(7-((1R*,3R*)-3-ethoxycyclobutoxy)-2-(tetrahydro-2H-pyran-4-yl)imidazo[1,2-a]pyridin-6-yl)picolinamide] are the same in IC50: 0.001 µM for the first, 0.001 µM for the second.

Going from O=C(Nc1cn2cc(C3CCOCC3)nc2cc1OCCF)c1cccc(C(F)F)n1 [Example 188, 6-(difluoromethyl)-N-(7-(2-fluoroethoxy)-2-(tetrahydro-2H-pyran-4-yl)imidazo[1,2-a]pyridin-6-yl)picolinamide] to O=C(Nc1cn2cc(C3CCOCC3)nc2cc1OCCOC(F)F)c1cccc(C(F)F)n1 [Example 192, N-(7-(2-(difluoromethoxy)ethoxy)-2-(tetrahydro-2H-pyran-4-yl)imidazo[1,2-a]pyridin-6-yl)-6-(difluoromethyl)picolinamide], the IC50 rises from 0.001 µM to 0.002 µM (2-fold).

Compared with O=C(Nc1cn2cc(C3CCOCC3)nc2cc1OCC1CC(F)(F)C1)c1cccc(C(F)F)n1 [Example 191, N-(7-((3,3-difluorocyclobutyl)methoxy)-2-(tetrahydro-2H-pyran-4-yl)imidazo[1,2-a]pyridin-6-yl)-6-(difluoromethyl)picolinamide], O=C(Nc1cn2cc(C3CCOCC3)nc2cc1OCC1CC1(F)F)c1cccc(C(F)F)n1 (stereo not drawn) [Example 196, N-(7-((2,2-difluorocyclopropyl)methoxy)-2-(tetrahydro-2H-pyran-4-yl)imidazo[1,2-a]pyridin-6-yl)-6-(difluoromethyl)picolinamide] is 2-fold lower in IC50: 0.002 µM for the first, 0.001 µM for the second.

First: O=C(Nc1cn2cc(C3CCOCC3)nc2cc1OCC1CCCOC1)c1cccc(C(F)F)n1 (stereo not drawn) [Example 193, 6-(difluoromethyl)-N-(7-((tetrahydro-2H-pyran-3-yl)methoxy)-2-(tetrahydro-2H-pyran-4-yl)imidazo[1,2-a]pyridin-6-yl)picolinamide]
Second: O=C(Nc1cn2cc(C3CCOCC3)nc2cc1OCC1CC12CCOC2)c1cccc(C(F)F)n1 (stereo not drawn) [Example 194, N-(7-((5-oxaspiro[2.4]heptan-1-yl)methoxy)-2-(tetrahydro-2H-pyran-4-yl)imidazo[1,2-a]pyridin-6-yl)-6-(difluoromethyl)picolinamide]
The IC50 of the first is 2-fold lower: 0.001 µM for the first, 0.002 µM for the second. The first is the more potent here.

First: CC1(COc2cc3nc(C4CCOCC4)cn3cc2NC(=O)c2cccc(C(F)F)n2)CCOC1 (stereo not drawn) [Example 197, 6-(difluoromethyl)-N-(7-((3-methyltetrahydrofuran-3-yl)methoxy)-2-(tetrahydro-2H-pyran-4-yl)imidazo[1,2-a]pyridin-6-yl)picolinamide]
Second: O=C(Nc1cn2cc(C3CCOCC3)nc2cc1OCC1(C(F)F)CCC1)c1cccc(C(F)F)n1 [Example 198, 6-(difluoromethyl)-N-(7-((1-(difluoromethyl)cyclobutyl)methoxy)-2-(tetrahydro-2H-pyran-4-yl)imidazo[1,2-a]pyridin-6-yl)picolinamide]
The IC50 of the first is 4-fold higher: 0.004 µM for the first, 0.001 µM for the second. The second is the more potent here.

First: CC12CC(c3cn4cc(NC(=O)c5cccc(C(F)F)n5)nc(OCc5ccccc5)c4n3)(CO1)C2 [Example 199, N-(8-(benzyloxy)-2-(1-methyl-2-oxabicyclo[2.1.1]hexan-4-yl)imidazo[1,2-a]pyrazin-6-yl)-6-(difluoromethyl)picolinamide]
Second: CCOc1nc(NC(=O)c2cccc(C(F)F)n2)cn2cc(C34COC(C)(C3)C4)nc12 [Example 201, 6-(difluoromethyl)-N-(8-ethoxy-2-(1-methyl-2-oxabicyclo[2.1.1]hexan-4-yl)imidazo[1,2-a]pyrazin-6-yl)picolinamide]
The IC50 of the first is 4-fold higher: 0.016 µM for the first, 0.004 µM for the second.

Compared with CC12CC(c3cn4cc(NC(=O)c5cccc(C(F)F)n5)nc(O)c4n3)(CO1)C2 [Example 200, 6-(difluoromethyl)-N-(8-hydroxy-2-(1-methyl-2-oxabicyclo[2.1.1]hexan-4-yl)imidazo[1,2-a]pyrazin-6-yl)picolinamide], CC(C)Oc1cc2nc(C34CC(F)(C3)C4)cn2cc1NC(=O)c1cccc(C(F)F)n1 [Example 258, 6-(difluoromethyl)-N-(2-(3-fluorobicyclo[1.1.1]pentan-1-yl)-7-isopropoxyimidazo[1,2-a]pyridin-6-yl)picolinamide] is 60-fold lower in IC50: 0.06 µM for the first, 0.001 µM for the second. The second is the more potent here.

CCOc1cc2nc(C3CCOCC3)cn2cc1NC(=O)c1cccc(CC)n1 [Example 217, N-(7-ethoxy-2-(tetrahydro-2H-pyran-4-yl)imidazo[1,2-a]pyridin-6-yl)-6-ethylpicolinamide] and CCOc1cc2nc(CC3CCS(=O)(=O)C3)cn2cc1NC(=O)c1cccc(C(F)F)n1 (stereo not drawn) [Example 257, 6-(difluoromethyl)-N-(2-((1,1-dioxidotetrahydrothiophen-3-yl)methyl)-7-ethoxyimidazo[1,2-a]pyridin-6-yl)picolinamide] are the same in IC50: 0.001 µM for the first, 0.001 µM for the second.

First: CC(C)Oc1cc2nc(C3CCOCC3)cn2cc1NC(=O)c1cc(C(F)F)cs1 [Example 232, 4-(difluoromethyl)-N-(7-isopropoxy-2-(tetrahydro-2H-pyran-4-yl)imidazo[1,2-a]pyridin-6-yl)thiophene-2-carboxamide]
Second: COc1cc(NC(=O)c2csc(C3CC3)n2)cn2cc(C3CCOCC3)nc12 [Example 244, 2-cyclopropyl-N-(8-methoxy-2-(tetrahydro-2H-pyran-4-yl)imidazo[1,2-a]pyridin-6-yl)thiazole-4-carboxamide]
The IC50 of the first is 1.6-fold higher: 0.044 µM for the first, 0.028 µM for the second.

Compared with CCOc1cc2nc(C3C4COCC43)cn2cc1NC(=O)c1ccn(CC(F)(F)F)n1 (stereo not drawn) [Example 235, N-(2-(3-oxabicyclo[3.1.0]hexan-6-yl)-7-ethoxyimidazo[1,2-a]pyridin-6-yl)-1-(2,2,2-trifluoroethyl)-1H-pyrazole-3-carboxamide], CC(C)Oc1cc2nc(C(F)F)cn2cc1NC(=O)c1ccn(C(F)F)n1 [Example 267, 1-(difluoromethyl)-N-(2-(difluoromethyl)-7-isopropoxyimidazo[1,2-a]pyridin-6-yl)-1H-pyrazole-3-carboxamide] is 12-fold lower in IC50: 0.023 µM for the first, 0.002 µM for the second.

First: COC(=O)C(C)(C)c1cn2cc(NC(=O)c3cccc(C(F)F)n3)c(OC(C)C)cc2n1 [Example 261, methyl 2-(6-(6-(difluoromethyl)picolinamido)-7-isopropoxyimidazo[1,2-a]pyridin-2-yl)-2-methylpropanoate]
Second: CC(C)Oc1cc2nc(C(C)(C)C(=O)O)cn2cc1NC(=O)c1cccc(C(F)F)n1 [Example 262, 2-(6-(6-(difluoromethyl)picolinamido)-7-isopropoxyimidazo[1,2-a]pyridin-2-yl)-2-methylpropanoic acid]
The IC50 of the first is 3-fold lower: 0.002 µM for the first, 0.006 µM for the second.

Going from Cc1nn(C)cc1-c1cn2cc(NC(=O)c3cccc(C(F)F)n3)c(OC(C)C)cc2n1 [Example 263, 6-(difluoromethyl)-N-(2-(1,3-dimethyl-1H-pyrazol-4-yl)-7-isopropoxyimidazo[1,2-a]pyridin-6-yl)picolinamide] to CC(C)Oc1cc2nc(-c3cn(C)nc3C(F)F)cn2cc1NC(=O)c1cccc(C(F)F)n1 [Example 264, 6-(difluoromethyl)-N-(2-(3-(difluoromethyl)-1-methyl-1H-pyrazol-4-yl)-7-isopropoxyimidazo[1,2-a]pyridin-6-yl)picolinamide], the IC50 rises from 0.001 µM to 0.002 µM (2-fold).

In the case of COc1cc(NC(=O)c2cccc(C(F)F)n2)cn2cc([C@]3(C)C[C@@H](OC)C3)nc12 [Example 271, 6-(difluoromethyl)-N-(8-methoxy-2-((1r*,3r*)-3-methoxy-1-methylcyclobutyl)imidazo[1,2-a]pyridin-6-yl)picolinamide], the IC50 is reported as 0.016 µM.
